This note sets out measurements from US20240360151A1 (SANOFI, priority 2023, published 2024).

Assay [1] relates to NF-kB pathway (TNF-α secretion by THP-1 cells). The assay can be described thus: TNF-α secretion assay in LPS-stimulated THP-1 cells, Lumit immunoassay. To be noted: Homo sapiens, THP-1, 3 h, monocytic THP-1 cells, LPS 10 ng/mL, relative IC50, 10 concentrations, geometric mean. The assay is classed as cell-based, human. Put shortly: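 THP-1 monocytes in RPMI with 5% FBS were treated with compound, then stimulated with 10 ng/mL LPS for 3 h. Secreted TNF-α was measured in-plate by Lumit immunoassay. Relative IC50 came from 10-concentration curves fitted with a 4-parameter logistic model, reported as geometric mean.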

For assay [2], the target named is T1, NLRP3 inflammasome (Homo sapiens, UniProt Q96P20).
T1 construct: endogenous in cells; host or cells: THP-1 monocytic cells
The assay can be described thus: IL-1β secretion assay (NLRP3 IC50) in LPS-primed, nigericin-activated THP-1 cells, HTRF. The class given is cell-based. To be noted: monocytic THP-1 cells; LPS 10 ng/mL 3 h priming, then compound + nigericin 10 μM 2 h; relative IC50, 10 concentrations, geometric mean. In a few lines:
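THP-1 cells primed with LPS 10 ng/mL for 3 h at 37° C., then compound (10-point 1:3 dilution, 0.1% DMSO) added with 10 μM nigericin for 2 h. Supernatant IL-1β measured by HTRF; relative IC50 from a 4-parameter logistic fit, reported as geometric mean.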
Background: In TR-FRET formats the signal depends on donor and acceptor labels being close together.

T1 sequence (Q96P20 whole entry): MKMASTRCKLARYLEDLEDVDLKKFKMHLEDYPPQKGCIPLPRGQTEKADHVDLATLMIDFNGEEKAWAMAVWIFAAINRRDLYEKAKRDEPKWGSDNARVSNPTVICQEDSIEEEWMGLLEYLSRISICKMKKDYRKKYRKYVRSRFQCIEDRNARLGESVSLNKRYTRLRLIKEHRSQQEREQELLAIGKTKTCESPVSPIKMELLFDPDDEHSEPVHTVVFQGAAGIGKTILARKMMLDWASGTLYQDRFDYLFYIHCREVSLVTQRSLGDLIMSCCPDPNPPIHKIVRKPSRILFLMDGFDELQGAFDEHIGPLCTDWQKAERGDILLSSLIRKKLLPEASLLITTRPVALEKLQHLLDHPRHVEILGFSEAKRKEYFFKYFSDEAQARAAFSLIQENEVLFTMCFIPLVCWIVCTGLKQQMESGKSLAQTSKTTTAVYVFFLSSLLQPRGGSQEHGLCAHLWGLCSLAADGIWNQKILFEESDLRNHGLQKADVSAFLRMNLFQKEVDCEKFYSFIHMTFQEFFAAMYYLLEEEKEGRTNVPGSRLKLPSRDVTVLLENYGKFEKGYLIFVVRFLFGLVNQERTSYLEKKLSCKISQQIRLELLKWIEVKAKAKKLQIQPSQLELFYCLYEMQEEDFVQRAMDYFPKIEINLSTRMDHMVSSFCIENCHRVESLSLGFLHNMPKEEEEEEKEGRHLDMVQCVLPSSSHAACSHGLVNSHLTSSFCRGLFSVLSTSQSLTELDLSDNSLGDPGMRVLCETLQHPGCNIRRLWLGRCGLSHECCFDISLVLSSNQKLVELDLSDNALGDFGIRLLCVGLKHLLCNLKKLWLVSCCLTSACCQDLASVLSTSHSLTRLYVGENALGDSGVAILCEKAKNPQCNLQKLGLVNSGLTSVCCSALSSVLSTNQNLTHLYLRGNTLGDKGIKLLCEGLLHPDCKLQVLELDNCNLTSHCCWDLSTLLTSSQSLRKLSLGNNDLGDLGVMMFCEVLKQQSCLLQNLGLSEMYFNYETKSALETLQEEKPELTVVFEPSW

As for `CCN1CC[C@H]2CCN(c3ccc(-c4c(C)cc(C(F)(F)F)cc4O)nn3)[C@H]2C1` (racemic) [Example 378, 2-[6-[rac-(3aS,7aR)-6-ethyl-3,3a,4,5,7,7a-hexahydro-2H-pyrrolo[2,3-c]pyridin-1-yl]pyridazin-3-yl]-3-methyl-5-(trifluoromethyl)phenol], the IC50 (commonly the point on the concentration scale where inhibition reaches its midpoint) in assay [1] was greater than 10000 nM; in assay [2], 1 nM.
For the compound `Cc1cc(C)c(-c2ccc(N3CCCc4cccc(O)c43)nn2)c(O)c1` [Example 231, 1-[6-(2-hydroxy-4,6-dimethyl-phenyl)pyridazin-3-yl]-3,4-dihydro-2H-quinolin-8-ol], the half-inhibitory concentration (IC50) in assay [1] is greater than 10000 nM; in assay [2], 219 nM.
In the same order, the values of `CCN1CC[C@H]2OCCN(c3cc(C(F)F)c(-c4ccc(C)cc4O)nn3)[C@H]2C1` [Example 323, 2-[6-[(4aS,8aR)-6-ethyl-3,4a,5,7,8,8a-hexahydro-2H-pyrido[4,3-b][1,4]oxazin-4-yl]-4-(difluoromethyl)pyridazin-3-yl]-5-methyl-phenol] are greater than 10000 nM and 3 nM.
On the same counts, the results for `Oc1cc(Cl)cc(Cl)c1-c1ccc(N2CC3(COC3)C2)nn1` [Example 64, 3,5-dichloro-2-[6-(2-oxa-6-azaspiro[3.3]heptan-6-yl)pyridazin-3-yl]phenol] are greater than 10000 nM and 222 nM.
On the same counts, the results for `Cc1cc(C(F)(F)F)cc(O)c1-c1ccc(N2CC[C@@H]3CCNC[C@@H]32)nn1` (single isomer, unassigned) [Example 407] are greater than 10000 nM and 3 nM.
Consider `Cc1cc(C(F)(F)F)cc(O)c1-c1ccc(N2C[C@H](O)CC2=O)nn1` [Example 132, (4R)-4-hydroxy-1-[6-[2-hydroxy-6-methyl-4-(trifluoromethyl)phenyl]pyridazin-3-yl]pyrrolidin-2-one], for which the concentration for half-maximal inhibition (IC50) in assay [1] is greater than 10000 nM; in assay [2], 362 nM.
On the same counts, the results for `Cc1cc(C(C)C)cc(O)c1-c1ccc(N2CCO[C@H](CO)C2)nn1` [Example 274, 2-[6-[(2S)-2-(hydroxymethyl)morpholin-4-yl]pyridazin-3-yl]-5-isopropyl-3-methyl-phenol] are greater than 10000 nM and 171 nM.
In the same order, the values of `CC(=O)N1CC[C@H]2OCCN(c3ccc(-c4c(C)cc(Cl)cc4O)nn3)[C@H]2C1` (single isomer, unassigned) [Example 397] are greater than 10000 nM and 23 nM.
On the same counts, the results for `Cc1cc(C(F)(F)F)cc(O)c1-c1ccc(N2CCOC(C(C)(C)O)C2)nn1` (single isomer, unassigned) [Example 53, 2-[6-[2-(1-hydroxy-1-methyl-ethyl)morpholin-4-yl]pyridazin-3-yl]-3-methyl-5-(trifluoromethyl)phenol] are greater than 10000 nM and 275 nM.
Turning to `Cc1cc(C(F)(F)F)cc(O)c1-c1ccc(N2CCCC(CO)C2=O)nn1` (stereo not shown) [Example 273, 3-(hydroxymethyl)-1-[6-[2-hydroxy-6-methyl-4-(trifluoromethyl)phenyl]pyridazin-3-yl]piperidin-2-one], the results for the IC50 in assay [1] and in assay [2] were greater than 10000 nM and 456 nM, respectively.
With `CCc1cc(N2CCO[C@H](CO)C2)nnc1-c1ccc(C)cc1O` [Example 72, 2-[4-ethyl-6-[(2S)-2-(hydroxymethyl)morpholin-4-yl]pyridazin-3-yl]-5-methyl-phenol], the half-inhibitory concentration (IC50) is greater than 10000 nM in assay [1] and 107 nM in assay [2].
On the same counts, the results for `Cc1ccc(-c2nnc(N3CCO[C@H](CO)C3)c(C)c2C)c(O)c1` [Example 80, 2-[6-[(2S)-2-(hydroxymethyl)morpholin-4-yl]-4,5-dimethyl-pyridazin-3-yl]-5-methyl-phenol] are greater than 10000 nM and 208 nM.
In the case of `Cc1cc(C)c(-c2cc(CO)c(N3CCO[C@H](CO)C3)nn2)c(O)c1` [Example 187, 2-[5-(hydroxymethyl)-6-[(2S)-2-(hydroxymethyl)morpholin-4-yl]pyridazin-3-yl]-3,5-dimethyl-phenol], the IC50 in assay [1] was greater than 10000 nM; in assay [2] it was 66 nM.
On the same counts, the results for `CN1CC[C@H]2CCN(c3ccc(-c4c(O)cccc4C(F)(F)F)nn3)[C@H]2C1` (racemic) [Example 389, 2-[6-[rac-(3aS,7aR)-6-methyl-3,3a,4,5,7,7a-hexahydro-2H-pyrrolo[2,3-c]pyridin-1-yl]pyridazin-3-yl]-3-(trifluoromethyl)phenol] are greater than 10000 nM and 2 nM.
In the same order, the values of `OC[C@@H]1CN(c2cc(C(F)F)c(-c3ccc(Cl)cc3O)nn2)CCO1` [Example 145, 5-chloro-2-[4-(difluoromethyl)-6-[(2S)-2-(hydroxymethyl)morpholin-4-yl]pyridazin-3-yl]phenol] are greater than 10000 nM and 34 nM.
With `Cc1cc(C)c(-c2ccc(N3CCc4cc(O)ccc43)nn2)c(O)c1` [Example 236, 1-[6-(2-hydroxy-4,6-dimethyl-phenyl)pyridazin-3-yl]indolin-5-ol], the values for the IC50 in assay [1] and in assay [2] were 9650 nM and 551 nM, respectively.
In the same order, the values of `Cc1cc(C)c(-c2cc(C(F)F)c(N3CCO[C@H](CO)C3)nn2)c(O)c1` [Example 170, 2-[5-(difluoromethyl)-6-[(2S)-2-(hydroxymethyl)morpholin-4-yl]pyridazin-3-yl]-3,5-dimethyl-phenol] are greater than 10000 nM and 12 nM.
Regarding `CC(=O)NC[C@@H]1COCCN1c1ccc(-c2c(C)cc(C)cc2O)nn1` [Example 129, N-[[(3R)-4-[6-(2-hydroxy-4,6-dimethyl-phenyl)pyridazin-3-yl]morpholin-3-yl]methyl]acetamide], the concentration for half-maximal inhibition (IC50) in assay [1] was greater than 10000 nM; in assay [2], 665 nM.
On the same counts, the results for `Cc1cc(C)c(-c2ccc(N3CCC(CO)C3=O)nn2)c(O)c1` (stereo not shown) [Example 122, 1-[6-(2-hydroxy-4,6-dimethyl-phenyl)pyridazin-3-yl]-3-(hydroxymethyl) pyrrolidin-2-one] are greater than 10000 nM and 149 nM.
On the same counts, the results for `Cc1cc(C(F)(F)F)cc(O)c1-c1ccc(N2CC[C@@H]3CCN(C)C[C@@H]32)nn1` (racemic) [Example 371, 2-[6-[rac-(3aS,7aR)-6-methyl-3,3a,4,5,7,7a-hexahydro-2H-pyrrolo[2,3-c]pyridin-1-yl]pyridazin-3-yl]-3-methyl-5-(trifluoromethyl)phenol] are greater than 10000 nM and 1 nM.
In the same order, the values of `CC(=O)NC[C@H]1CN(c2ccc(-c3c(C)cc(Cl)cc3O)nn2)CCO1` [Example 280, N-[[(2S)-4-[6-(4-chloro-2-hydroxy-6-methylphenyl)pyridazin-3-yl]morpholin-2-yl]methyl]acetamide] are greater than 10000 nM and 76 nM.
For the compound `Cc1cc(Cl)cc(O)c1-c1cc(CO)c(N2CCO[C@H](CO)C2)nn1` [Example 189, 5-chloro-2-[5-(hydroxymethyl)-6-[(2S)-2-(hydroxymethyl)morpholin-4-yl]pyridazin-3-yl]-3-methyl-phenol], the half-maximal inhibitory concentration (IC50) in assay [1] is greater than 10000 nM; in assay [2] it was 12 nM.
On to `CCN1CC[C@H]2OCCN(c3cc(C)c(-c4ccc(C)cc4O)nn3)[C@H]2C1` [Example 435, 2-[6-[(4aS,8aR)-6-ethyl-3,4a,5,7,8,8a-hexahydro-2H-pyrido[4,3-b][1,4]oxazin-4-yl]-4-methyl-pyridazin-3-yl]-5-methyl-phenol], for which the IC50 in assay [1] is greater than 10000 nM; in assay [2] it was 3 nM.
On the same counts, the results for `Cc1cc(C)c(-c2ccc(N3C[C@H](CO)O[C@@H](CO)C3)nn2)c(O)c1` [Example 201, 2-[6-[(2R,6R)-2,6-bis(hydroxymethyl)morpholin-4-yl]pyridazin-3-yl]-3,5-dimethyl-phenol] are greater than 10000 nM and 76 nM.
On the same counts, the results for `Cc1cc(N2CC[C@@H]3CCN(C)C[C@@H]32)nnc1-c1ccc(C(F)(F)F)cc1O` (racemic) [Example 340, 2-[4-methyl-6-[rac-(3aS,7aR)-6-methyl-3,3a,4,5,7,7a-hexahydro-2H-pyrrolo[2,3-c]pyridin-1-yl]pyridazin-3-yl]-5-(trifluoromethyl)phenol] are greater than 10000 nM and 0.4 nM.
Turning to `Cc1cc(C)c(-c2ccc(N3C[C@@H](CO)O[C@@H](C)C3)nn2)c(O)c1` [Example 390, 2-[6-[(2S,6S)-2-(hydroxymethyl)-6-methyl-morpholin-4-yl]pyridazin-3-yl]-3,5-dimethyl-phenol], the IC50 in assay [1] was greater than 10000 nM; in assay [2], 33 nM.
On the same counts, the results for `Cc1cc(C)c(-c2ccc(N3CC[C@H](CO)C3)nn2)c(O)c1` [Example 79, 2-[6-[(3S)-3-(hydroxymethyl)pyrrolidin-1-yl]pyridazin-3-yl]-3,5-dimethyl-phenol] are 9500 nM and 285 nM.
Take `Cc1cc(C)c(-c2cc(C)c(N3CCO[C@@H]4CCN(C)C[C@@H]43)nn2)c(O)c1` [Example 434, 2-[6-[(4aS,8aR)-6-methyl-3,4a,5,7,8,8a-hexahydro-2H-pyrido[4,3-b][1,4]oxazin-4-yl]-5-methyl-pyridazin-3-yl]-3,5-dimethyl-phenol]: the IC50 in assay [1] is greater than 10000 nM; in assay [2], 42 nM.
With `Cc1cc(Cl)cc(O)c1-c1nnc(N2CCO[C@H](CO)C2)cc1CO` [Example 188, 5-chloro-2-[4-(hydroxymethyl)-6-[(2S)-2-(hydroxymethyl)morpholin-4-yl]pyridazin-3-yl]-3-methyl-phenol], the IC50 in assay [1] was greater than 10000 nM; in assay [2], 414 nM.
